Assay results: patent US20190105337A1, “METHODS OF TREATING BACTERIAL INFECTIONS” (priority 2015, published 2019)

Key:
clinical [1] = settings: human, in vivo; for clearance: Plasma Clearance; for Vd: Vss
Description: The combination of both drugs was administered on day 7. All drugs were infused over 3 hours. Plasma and urine samples were obtained and assayed using validated HPLC/MS methods.

clinical [2] = settings: human, in vivo; for clearance: Plasma Clearance; for Vd: Vss; remark: listed apart in the source
Description: All infusions were administered over 3 hours. Intensive plasma and urine PK sampling was obtained after dosing and assayed using validated HPLC/MS methods.

Plasma protein binding = type: in vitro ADME
[3] = Example 6: noncompartmental plasma pharmacokinetics after third dose of the Combination (2 g meropenem/2 g Compound I q8h); settings: for Vss / clearance / Cmax / Tmax: Compound I 2 g q8h; for AUC(0-t) / clearance / Cmax / Tmax / half-life: both, human, plasma, intravenous; for AUC(0-t): AUC0-8, Compound I 2 g q8h; for clearance: CL; for half-life: t1/2, Compound I 2 g q8h
Description: (§1) A total of twenty-five (n=25) male and female subjects who met the study entry criteria and completed all phases of the pharmacokinetic study were included in this pharmacokinetic analysis. […] Blood samples were collected to measure drug concentrations in plasma prior to (time 0), and at 1.5, 2.95, 3.083, 3.25, 3.5, 4, 6, and 8 hours after the start of a 3-hour intravenous infusion of the third combination dose.
(§2) (Reports MC14B-0013, MC14B-0015, MC14I-011, and MC14I-0012). The urea concentrations in plasma and BAL were performed with a microplate-based method with an 0-phthalaldehyde chromogenic solution at MicroConstants, Inc., San Diego, Calif.
Peak plasma concentration (Cmax) and time to Cmax (Tmax) were read from the observed plasma concentration-time profile after the start of the intravenous infusion of the third Combination dose. Area under the plasma concentration-time curve over 8 hours (AUC0-8) after the third dose was calculated with the linear-log trapezoidal rule (WinNonlin®, version 6.3, Pharsight Corporation, Cary, N.C.). The elimination rate constant (β) was determined by nonlinear least-squares regression. Elimination half-life (t½) was calculated by dividing β into the natural logarithm of two.

clinical [4] = settings: both, human, in vivo
Description: as §1
Urea has been commonly used as an endogenous marker to estimate the apparent volume of ELF. Blood samples to determine plasma urea concentrations were obtained just prior to scheduled bronchoscopy. Aliquots of BAL were obtained to determine urea concentrations in BAL and cell count with differential. The standardized bronchoscopy with BAL procedure for the collection of intrapulmonary samples has been previously described in the references listed below.
as §2
The calculations of ELF volume and drug concentrations in ELF and AM were performed with BAL supernatant and pulmonary (alveolar) cells (“cell pellet”) from aspirates recovered from the 2nd, 3rd, and 4th instillations (BAL2). The concentration of drug (ABXELF) in the epithelial lining fluid (ELF) was determined as follows:
[…]
VELF is derived from the following:
where UreaBAL is the concentration of urea in BAL fluid and UreaP is the concentration of urea in plasma.
The concentration of drug (ABXAM) in the alveolar cells (AC) was determined as follows:
Differential cell count was performed to determine the number of macrophages present. A mean macrophage cell volume of 2.42 μl/106 cells was used in the calculations for volume of alveolar cells in the pellet suspension.
The concentration ratios of ELF and AM to the simultaneous plasma concentrations were calculated for each subject and summarized for each group at each sampling time. […] The 8-hour sampling time was also used as a value at time zero for determining the area term of plasma, ELF, and AM. The AUC0-8 for each matrix was determined with the linear trapezoidal method. The ratio of AUC0-8 of ELF to plasma and AM to plasma were calculated.

[5] = AM concentration at time of bronchoscopy and BAL
[6] = ELF concentration at time of bronchoscopy and BAL
[7] = Plasma concentration at time of bronchoscopy and BAL
[8] = Ratio AM to Plasma (total plasma concentration)
[9] = Ratio ELF to Plasma (total plasma concentration)

In the case of `O=C(O)C[C@@H]1CC[C@H](NC(=O)Cc2cccs2)B(O)O1` [Compound I], the AUC(0-inf) (clinical [1]; 250 mg) is reported as 17.5 µg·h/mL, the Cmax (clinical [1]; 250 mg) is reported as 5200 ng/mL and the half-life (clinical [1]; 250 mg) is reported as 1.18 h. The clearance (clinical [1]; 250 mg) was 245 mL/min, the Vd (clinical [1]; 250 mg) was 23.1 L and the AUC(0-inf) (clinical [1]; 1000 mg) was 77.6 µg·h/mL. The Cmax (clinical [1]; 1000 mg) was 22000 ng/mL, the half-life (clinical [1]; 1000 mg) was 1.56 h and the clearance (clinical [1]; 1000 mg) was 222 mL/min. It also gave a Vd (clinical [1]; 1000 mg) of 21.4 L, an AUC(0-inf) (clinical [1]; 1500 mg) of 124 µg·h/mL and a Cmax (clinical [1]; 1500 mg) of 37200 ng/mL. It also gave a half-life (clinical [1]; 1500 mg) of 1.21 h, a clearance (clinical [1]; 1500 mg) of 206 mL/min and a Vd (clinical [1]; 1500 mg) of 19.4 L. The AUC(0-inf) (clinical [2]; 250 mg) was 17.5 µg·h/mL, the Cmax (clinical [2]; 250 mg) was 5200 ng/mL and the half-life (clinical [2]; 250 mg) was 1.18 h. For the same compound, the clearance (clinical [2]; 250 mg) was 245 mL/min, the Vd (clinical [2]; 250 mg) was 23.1 L and the AUC(0-inf) (clinical [2]; 1000 mg) was 77.6 µg·h/mL. For the same compound, the Cmax (clinical [2]; 1000 mg) was 22000 ng/mL, the half-life (clinical [2]; 1000 mg) was 1.56 h and the clearance (clinical [2]; 1000 mg) was 222 mL/min. For the same compound, the Vd (clinical [2]; 1000 mg) was 21.4 L, the AUC(0-inf) (clinical [2]; 1500 mg) was 124 µg·h/mL and the Cmax (clinical [2]; 1500 mg) was 37200 ng/mL. For the same compound, the half-life (clinical [2]; 1500 mg) was 1.21 h, the clearance (clinical [2]; 1500 mg) was 206 mL/min and the Vd (clinical [2]; 1500 mg) was 19.4 L. It also gave a fraction unbound (Plasma protein binding) of 0.67, a Vss ([3]; 1.5-hour BAL Sampling Group) of 18.6 ± 2.3 L and a Vss ([3]; 3.25-hour BAL Sampling Group) of 17.3 ± 2.3 L. For the same compound, the Vss ([3]; 4-hour BAL Sampling Group) was 16.9 ± 0.9 L, the Vss ([3]; 6-hour BAL Sampling Group) was 18.1 ± 3.9 L and the Vss ([3]; 8-hour BAL Sampling Group) was 17.0 ± 3.3 L. For the same compound, the Vss ([3]; All Subjects) was 17.6 ± 2.6 L, the AUC(0-t) ([3]; 1.5-hour BAL Sampling Group) was 184 ± 38.6 µg·h/mL and the AUC(0-t) ([3]; 3.25-hour BAL Sampling Group) was 210 ± 32.2 µg·h/mL. The AUC(0-t) ([3]; 4-hour BAL Sampling Group) was 214 ± 35.4 µg·h/mL, the AUC(0-t) ([3]; 6-hour BAL Sampling Group) was 216 ± 33.7 µg·h/mL and the AUC(0-t) ([3]; 8-hour BAL Sampling Group) was 198 ± 36.6 µg·h/mL. For the same compound, the AUC(0-t) ([3]; All Subjects) was 204 ± 34.6 µg·h/mL, the clearance ([3]; 1.5-hour BAL Sampling Group) was 188 mL/min and the clearance ([3]; 3.25-hour BAL Sampling Group) was 162 mL/min. For the same compound, the clearance ([3]; 4-hour BAL Sampling Group) was 158 mL/min, the clearance ([3]; 6-hour BAL Sampling Group) was 158 mL/min and the clearance ([3]; All Subjects) was 168 mL/min. It also gave a Cmax ([3]; 1.5-hour BAL Sampling Group) of 56100 ± 13000 ng/mL, a Cmax ([3]; 3.25-hour BAL Sampling Group) of 59700 ± 5800 ng/mL and a Cmax ([3]; 4-hour BAL Sampling Group) of 60100 ± 5700 ng/mL. It also gave a Cmax ([3]; 6-hour BAL Sampling Group) of 60900 ± 9700 ng/mL, a Cmax ([3]; 8-hour BAL Sampling Group) of 57900 ± 8800 ng/mL and a Cmax ([3]; All Subjects) of 59000 ± 8400 ng/mL. The Tmax ([3]; 1.5-hour BAL Sampling Group) was 2.95 ± 0.01 h, the Tmax ([3]; 3.25-hour BAL Sampling Group) was 3 ± 0.07 h and the Tmax ([3]; 4-hour BAL Sampling Group) was 2.98 ± 0.06 h. It also gave a Tmax ([3]; 6-hour BAL Sampling Group) of 3 ± 0.07 h, a Tmax ([3]; 8-hour BAL Sampling Group) of 2.98 ± 0.06 h and a Tmax ([3]; All Subjects) of 2.98 ± 0.06 h. For the same compound, the half-life ([3]; 1.5-hour BAL Sampling Group) was 1.18 ± 0.08 h, the half-life ([3]; 3.25-hour BAL Sampling Group) was 1.26 ± 0.23 h and the half-life ([3]; 4-hour BAL Sampling Group) was 1.34 ± 0.26 h. The half-life ([3]; 6-hour BAL Sampling Group) was 1.37 ± 0.27 h, the half-life ([3]; 8-hour BAL Sampling Group) was 1.18 ± 0.16 h and the half-life ([3]; All Subjects) was 1.27 ± 0.21 h. The concentration at 1.5 h (clinical [4]; [5]) was 2710 ± 1440 ng/mL, the concentration at 3.25 h (clinical [4]; [5]) was 8790 ± 9430 ng/mL and the concentration at 4 h (clinical [4]; [5]) was 5510 ± 3150 ng/mL. It also gave a concentration at 6 h (clinical [4]; [5]) of 27600 ± 39600 ng/mL, a concentration at 8 h (clinical [4]; [5]) of 4400 ± 4100 ng/mL and an AUC(0-t) (clinical [4]; AUC0-8 based on mean ELF concentrations) of 105 µg·h/mL. For the same compound, the AUC(0-t) (clinical [4]; AUC0-8 based on median ELF concentrations) was 96.7 µg·h/mL, the concentration at 1.5 h (clinical [4]; [6]) was 18600 ± 3800 ng/mL and the concentration at 3.25 h (clinical [4]; [6]) was 26100 ± 1100 ng/mL. For the same compound, the concentration at 4 h (clinical [4]; [6]) was 15700 ± 3400 ng/mL, the concentration at 6 h (clinical [4]; [6]) was 8030 ± 5800 ng/mL and the concentration at 8 h (clinical [4]; [6]) was 2610 ± 1350 ng/mL. For the same compound, the concentration at 1.5 h (clinical [4]; [7]) was 42100 ± 5000 ng/mL, the concentration at 3.25 h (clinical [4]; [7]) was 51100 ± 6800 ng/mL and the concentration at 4 h (clinical [4]; [7]) was 28200 ± 5300 ng/mL. It also gave a concentration at 6 h (clinical [4]; [7]) of 10800 ± 2800 ng/mL, a concentration at 8 h (clinical [4]; [7]) of 2740 ± 1120 ng/mL and a Kp at 1.5 h (clinical [4]; [8]) of 0.062 ± 0.029. It also gave a Kp at 3.25 h (clinical [4]; [8]) of 0.165 ± 0.163, a Kp at 4 h (clinical [4]; [8]) of 0.191 ± 0.101 and a Kp at 6 h (clinical [4]; [8]) of 2.58 ± 3.57. The Kp at 8 h (clinical [4]; [8]) was 1.6 ± 1.1, the Kp at 1.5 h (clinical [4]; [9]) was 0.45 ± 0.123 and the Kp at 3.25 h (clinical [4]; [9]) was 0.508 ± 0.096. For the same compound, the Kp at 4 h (clinical [4]; [9]) was 0.57 ± 0.159, the Kp at 6 h (clinical [4]; [9]) was 0.705 ± 0.329 and the Kp at 8 h (clinical [4]; [9]) was 1.01 ± 0.391. The Kp (clinical [4]; intrapulmonary penetration based on AUC0-8 of ELF and total plasma concentrations) was ~0.53, the Kp (clinical [4]; intrapulmonary penetration, unbound plasma concentrations) was 0.79 and the Kp at 6 h (clinical [4]; mean ratio of AM to plasma concentration) was 2.58 ± 3.57. The Kp (clinical [4]; mean ratios of AM to simultaneous plasma concentration (range)) was 0.062 to 2.58, the Kp (clinical [4]; mean ratios of ELF to simultaneous plasma concentrations (range)) was 0.45 to 1.01 and the Kp (clinical [4]; ratio of ELF to total plasma concentrations based on mean AUC0-8) was 0.53. The Kp (clinical [4]; ratio of ELF to total plasma concentrations based on median AUC0-8) was 0.48, the Kp (clinical [4]; ratio of ELF to unbound plasma concentrations based on mean AUC0-8) was 0.79 and the Kp (clinical [4]; ratio of ELF to unbound plasma concentrations based on median AUC0-8) was 0.72.
